Experimental data from US6423727B1, “Certain thiol inhibitors of endothelin-converting enzyme” (Novartis AG, priority 1998, dated 2002).
Counter-ions that a name gives are not always drawn.

SMILES	melting point
CC(C)[C@H](S)C(=O)NC1(C(=O)N[C@@H](CC2CCC(C3CCCCC3)CC2)C(=O)O)CCCC1 (stereo in doubt) [3-Bicyclohexyl-4-yl-2-{[1-(2-mercapto-3-methyl-butanoylamino)-cyclopentanecarbonyl]-amino}-propionic acid]	209 to 210 °C
CC(C)[C@H](S)C(=O)NC1(C(=O)N[C@@H](Cc2ccc3c(c2)CCCC3)C(=O)O)CCCC1 (stereo in doubt) [2-{[1-(2-Mercapto-3-methyl-butanoylamino)-cyclopentanecarbonyl]-amino}-3-(5,6,7,8-tetrahydro-naphthalen-2-yl)-propionic acid]	190 to 192 °C
CC[C@H](C)C(S)C(=O)NC1(C(=O)N[C@@H](Cc2ccc(-c3ccsc3)cc2)C(=O)O)CCCC1 (stereo in doubt) [2-{[1-(2-Mercapto-3-methyl-pentanoylamino)-cyclopentanecarbonyl]-amino}-3-[4-(thiophen-3-yl)-phenyl]-propionic acid]	99 to 101 °C
CC(=O)N1CCCC(c2ccc(C[C@H](NC(=O)C3(NC(=O)[C@@H](S)C(C)C)CCCC3)C(=O)O)cc2)C1 (stereo in doubt) [3-[4-(1-Acetyl-piperidin-3-yl)-phenyl]-2-{[1-(2-mercapto-3-methyl-butanoylamino)-cyclopentanecarbonyl]-amino}-propionic acid]	190 to 192 °C
CC(C)[C@H](S)C(=O)NC1(C(=O)N[C@@H](Cc2cccc(-c3ccccc3)c2)C(=O)O)CCCC1 (stereo in doubt) [3-Biphenyl-3-yl-2-{[1-(2-mercapto-3-methylbutanoylamino)-cyclopentanecarbonyl]-amino}-propionic acid]	75 to 78 °C
O=C(O)[C@H](Cc1ccc(-c2ccccc2)cc1)NC(=O)C1(NC(=O)[C@@H](S)Cc2ccc3ccccc3c2)CCCC1 (stereo in doubt) [3-Biphenyl-4-yl-2-{[1-(2-mercapto-3-naphthalen-2-yl-propionylamino)-cyclopentanecarbonyl]-amino}-propionic acid]	166 to 168 °C
CC(C)C[C@H](S)C(=O)NC1(C(=O)NC(Cc2ccc(-c3ccccc3O)cc2)C(=O)O)CCCC1 (stereo in doubt) [3-(2′-Hydroxy-biphenyl-4-yl)-2-{[1-(2-mercapto-4-methyl-pentanoylamino)-cyclopentanecarbonyl]-amino}-propionic acid]	215 to 217 °C
O=C(O)[C@H](Cc1ccc(-c2ccccc2)cc1)NC(=O)C1(NC(=O)[C@@H](S)Cc2ccc(-c3ccccc3)cc2)CCCC1	187 to 189 °C
CC(C)[C@H](S)C(=O)NC1(C(=O)NC(Cc2ccc(-c3ccncc3)cc2)C(=O)O)CCCC1 (stereo partly drawn) [2-{[1-(2-Mercapto-3-methyl-butanoylamino)-cyclopentanecarbonyl]-amino}-3-(4-yl-phenyl)-propionic acid]	236 to 238 °C
COc1cc(C[C@H](NC(=O)C2(NC(=O)[C@@H](S)C(C)C)CCCC2)C(=O)O)ccc1-c1ccccc1 (stereo in doubt) [2-{[1-(2-Mercapto-3-methylbutanoylamino)-cyclopentanecarbonyl]-amino}-3-(2-methoxybiphenyl-4-yl)-propionic acid]	121 to 123 °C
O=C(NC1(C(=O)NC(Cc2ccc(C3CCCCC3)cc2)C(=O)O)CCCC1)C(S)Cc1ccccc1 (stereo not drawn) [3-(4-Cyclohexyl-phenyl)-2-{[1-(2-mercapto-3-phenyl-propionylamino)-cyclopentanecarbonyl]-amino}-propionic acid]	172 to 175 °C
CC[C@@H](C)[C@H](S)C(=O)NC1(C(=O)NC(Cc2ccc(-c3cncnc3)cc2)C(=O)O)CCCC1 (stereo in doubt) (as salt: hydrochloride) [2-{[1-(2-Mercapto-3-methyl-pentanoylamino)-cyclopentanecarbonyl]-amino}-3-(4-pyrimidin-5-yl-phenyl)-propionic acid hydrochloride]	170 to 184 °C
